{"source": "paper PMC3976565", "about": "(Science (New York, N.Y.), 2013)", "target": "SelA-ΔN (Aquifex aeolicus, UniProt O67140)", "sequence (O67140 62-452, stated change not applied)": "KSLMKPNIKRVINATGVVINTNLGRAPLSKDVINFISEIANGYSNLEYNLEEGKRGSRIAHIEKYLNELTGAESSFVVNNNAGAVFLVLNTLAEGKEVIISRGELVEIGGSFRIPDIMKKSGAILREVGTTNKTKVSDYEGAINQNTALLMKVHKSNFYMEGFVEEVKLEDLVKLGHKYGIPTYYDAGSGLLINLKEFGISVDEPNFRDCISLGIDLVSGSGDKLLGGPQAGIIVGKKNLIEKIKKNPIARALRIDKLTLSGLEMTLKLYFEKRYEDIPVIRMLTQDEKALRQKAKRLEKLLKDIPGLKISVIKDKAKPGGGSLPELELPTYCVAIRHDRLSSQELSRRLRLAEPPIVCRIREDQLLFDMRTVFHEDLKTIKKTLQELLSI", "assay": "X-ray crystallography", "type": "binding", "details": "3.25 A; covalent, Lys285; thiosulfate co-bound"}
{"smiles": "Cc1ncc(COP(=O)(O)O)c(C=O)c1O", "note": "[PLP]", "values": [{"measurement": "X-ray crystallography", "value": "SelA-ΔN in complex with thiosulfate. PLP and thiosulfate ions (TS1 to TS3) are shown"}]}
